Results as given in US20230389548A1, “MIXTURES OF PYRIMIDINES AS HERBICIDAL COMPOSITIONS” (SYNGENTA CROP PROTECTION AG, priority 2020, published 2023).

Legend:
Assay in all cases: Post-emergence glasshouse spray test, visual percentage phytotoxicity after 13 days
Assay type in all cases: in vivo
[1] = test system: Amaranthus retroflexus (AMARE); details: for AMARE percentage phytotoxicity: B1
Procedure, shortened: (§1)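 Seeds were sown in sterilised soil and grown 8 days; plants were then sprayed at 500 l/Ha with diluted IF50-formulated compound, kept 13 days at 24/18 °C with 15 h light, and scored visually for percent damage against untreated controls, with 2–4 randomised replicates.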

[2] = test system: Digitaria sanguinalis (DIGSA); details: for DIGSA percentage phytotoxicity: B1
Procedure, shortened: as §1

Lolium perenne (LOLPE) = details: for LOLPE percentage phytotoxicity: B1
Procedure, shortened: as §1

Stellaria media (STEME) = details: for STEME percentage phytotoxicity: B1
Procedure, shortened: as §1

[3] = test system: Echinochloa crus-galli (ECHCG)
Procedure, shortened: as §1

[4] = test system: Chenopodium album (CHEAL); details: for CHEAL percentage phytotoxicity: B1
Procedure, shortened: as §1

[5] = test system: Alopecurus myosuroides (ALOMY); details: for ALOMY percentage phytotoxicity: B1
Procedure, shortened: as §1

[6] = test system: Abutilon threophrasti (ABUTH); details: for ABUTH percentage phytotoxicity: B1
Procedure, shortened: as §1

Setaria faberi (SETFA) = details: for SETFA percentage phytotoxicity: B1
Procedure, shortened: as §1

[7] = test system: Ipomoea hederacea (IPOHE); details: for IPOHE percentage phytotoxicity: B1
Procedure, shortened: as §1

## FC(F)c1cc(-c2c(Cl)cccc2Oc2ncc(Cl)cn2)on1 [A-I]
[1]; 0.625 g/ha post-emergence
  AMARE percentage phytotoxicity: 60%
[1]; 1.25 g/ha post-emergence
  AMARE percentage phytotoxicity: 70%
[1]; 2.5 g/ha post-emergence
  AMARE percentage phytotoxicity: 98%
[1]; 5 g/ha post-emergence
  AMARE percentage phytotoxicity: 98%
[1]; 10 g/ha post-emergence
  AMARE percentage phytotoxicity: 100%
[1]; B2.1.5, 1.25 g/ha post-emergence
  Observed phytotoxicity AMARE: 55%
[1]; B2.2.6, 0.625 g/ha post-emergence
  Observed phytotoxicity AMARE: 51%
[1]; B2.2.6, 1.25 g/ha post-emergence
  Observed phytotoxicity AMARE: 76%
[1]; B2.4.8, 1.25 g/ha post-emergence
  Observed phytotoxicity AMARE: 70%
[2]; 0.625 g/ha post-emergence
  DIGSA percentage phytotoxicity: 6%
[2]; 1.25 g/ha post-emergence
  DIGSA percentage phytotoxicity: 25%
[2]; 2.5 g/ha post-emergence
  DIGSA percentage phytotoxicity: 34%
[2]; 5 g/ha post-emergence
  DIGSA percentage phytotoxicity: 63%
[2]; 10 g/ha post-emergence
  DIGSA percentage phytotoxicity: 78%
[2]; B2.2.3, 5 g/ha post-emergence
  Observed phytotoxicity DIGSA: 48%
[2]; B2.3.3, 0.625 g/ha post-emergence
  Observed phytotoxicity DIGSA: 3%
[2]; B2.3.3, 1.25 g/ha post-emergence
  Observed phytotoxicity DIGSA: 9%
[2]; B2.4.2, 2.5 g/ha post-emergence
  Observed phytotoxicity DIGSA: 34%
[2]; B2.4.2, 5 g/ha post-emergence
  Observed phytotoxicity DIGSA: 63%
[2]; B2.4.2, 10 g/ha post-emergence
  Observed phytotoxicity DIGSA: 78%
[2]; B2.5.1, 2.5 g/ha post-emergence
  Observed phytotoxicity DIGSA: 34%
[2]; B2.6.2, 0.625 g/ha post-emergence
  Observed phytotoxicity DIGSA: 6%
[2]; B2.6.2, 2.5 g/ha post-emergence
  Observed phytotoxicity DIGSA: 34%
[2]; B2.6.2, 10 g/ha post-emergence
  Observed phytotoxicity DIGSA: 78%
Lolium perenne (LOLPE); 0.625 g/ha post-emergence
  LOLPE percentage phytotoxicity: 4%
Lolium perenne (LOLPE); 1.25 g/ha post-emergence
  LOLPE percentage phytotoxicity: 5%
Lolium perenne (LOLPE); 2.5 g/ha post-emergence
  LOLPE percentage phytotoxicity: 8%
Lolium perenne (LOLPE); 5 g/ha post-emergence
  LOLPE percentage phytotoxicity: 43%
Lolium perenne (LOLPE); 10 g/ha post-emergence
  LOLPE percentage phytotoxicity: 30%
Lolium perenne (LOLPE); B2.1.1, 0.625 g/ha post-emergence
  Observed phytotoxicity LOLPE: 0%
Lolium perenne (LOLPE); B2.1.1, 1.25 g/ha post-emergence
  Observed phytotoxicity LOLPE: 0%
Lolium perenne (LOLPE); B2.2.4, 1.25 g/ha post-emergence
  Observed phytotoxicity LOLPE: 0%
Lolium perenne (LOLPE); B2.2.4, 2.5 g/ha post-emergence
  Observed phytotoxicity LOLPE: 0%
Lolium perenne (LOLPE); B2.2.4, 5 g/ha post-emergence
  Observed phytotoxicity LOLPE: 14%
Lolium perenne (LOLPE); B2.3.4, 1.25 g/ha post-emergence
  Observed phytotoxicity LOLPE: 0%
Lolium perenne (LOLPE); B2.3.4, 2.5 g/ha post-emergence
  Observed phytotoxicity LOLPE: 0%
Lolium perenne (LOLPE); B2.4.3, 10 g/ha post-emergence
  Observed phytotoxicity LOLPE: 30%
Lolium perenne (LOLPE); B2.5.2, 5 g/ha post-emergence
  Observed phytotoxicity LOLPE: 21%
Lolium perenne (LOLPE); B2.5.2, 10 g/ha post-emergence
  Observed phytotoxicity LOLPE: 30%
Lolium perenne (LOLPE); B2.6.3, 10 g/ha post-emergence
  Observed phytotoxicity LOLPE: 30%
Stellaria media (STEME); 0.625 g/ha post-emergence
  STEME percentage phytotoxicity: 44%
Stellaria media (STEME); 1.25 g/ha post-emergence
  STEME percentage phytotoxicity: 60%
Stellaria media (STEME); 2.5 g/ha post-emergence
  STEME percentage phytotoxicity: 88%
Stellaria media (STEME); 5 g/ha post-emergence
  STEME percentage phytotoxicity: 99%
Stellaria media (STEME); 10 g/ha post-emergence
  STEME percentage phytotoxicity: 98%
Stellaria media (STEME); B2.1.4, 1.25 g/ha post-emergence
  Observed phytotoxicity STEME: 40%
Stellaria media (STEME); B2.3.7, 0.625 g/ha post-emergence
  Observed phytotoxicity STEME: 29%
Stellaria media (STEME); B2.6.5, 0.625 g/ha post-emergence
  Observed phytotoxicity STEME: 44%
[3]; B2.1.2, 0.625 g/ha post-emergence
  Observed phytotoxicity ECHCG: 8%
[3]; B2.1.2, 5 g/ha post-emergence
  Observed phytotoxicity ECHCG: 20%
[3]; B2.2.2, 0.625 g/ha post-emergence
  Observed phytotoxicity ECHCG: 0%
[3]; B2.2.2, 1.25 g/ha post-emergence
  Observed phytotoxicity ECHCG: 34%
[3]; B2.2.2, 5 g/ha post-emergence
  Observed phytotoxicity ECHCG: 10%
[3]; B2.3.2, 0.625 g/ha post-emergence
  Observed phytotoxicity ECHCG: 0%
[3]; B2.3.2, 1.25 g/ha post-emergence
  Observed phytotoxicity ECHCG: 4%
[3]; B2.3.2, 5 g/ha post-emergence
  Observed phytotoxicity ECHCG: 10%
[4]; 0.625 g/ha post-emergence
  CHEAL percentage phytotoxicity: 48%
[4]; 1.25 g/ha post-emergence
  CHEAL percentage phytotoxicity: 53%
[4]; 2.5 g/ha post-emergence
  CHEAL percentage phytotoxicity: 79%
[4]; 5 g/ha post-emergence
  CHEAL percentage phytotoxicity: 76%
[4]; 10 g/ha post-emergence
  CHEAL percentage phytotoxicity: 78%
[4]; B2.1.6, 1.25 g/ha post-emergence
  Observed phytotoxicity CHEAL: 45%
[4]; B2.4.7, 1.25 g/ha post-emergence
  Observed phytotoxicity CHEAL: 53%
[5]; 0.625 g/ha post-emergence
  ALOMY percentage phytotoxicity: 5%
[5]; 1.25 g/ha post-emergence
  ALOMY percentage phytotoxicity: 11%
[5]; 2.5 g/ha post-emergence
  ALOMY percentage phytotoxicity: 10%
[5]; 5 g/ha post-emergence
  ALOMY percentage phytotoxicity: 43%
[5]; 10 g/ha post-emergence
  ALOMY percentage phytotoxicity: 41%
[5]; B2.2.5, 5 g/ha post-emergence
  Observed phytotoxicity ALOMY: 14%
[5]; B2.3.5, 1.25 g/ha post-emergence
  Observed phytotoxicity ALOMY: 1%
[5]; B2.4.4, 10 g/ha post-emergence
  Observed phytotoxicity ALOMY: 41%
[6]; 0.625 g/ha post-emergence
  ABUTH percentage phytotoxicity: 15%
[6]; 1.25 g/ha post-emergence
  ABUTH percentage phytotoxicity: 41%
[6]; 2.5 g/ha post-emergence
  ABUTH percentage phytotoxicity: 49%
[6]; 5 g/ha post-emergence
  ABUTH percentage phytotoxicity: 68%
[6]; 10 g/ha post-emergence
  ABUTH percentage phytotoxicity: 68%
[6]; B2.1.7, 1.25 g/ha post-emergence
  Observed phytotoxicity ABUTH: 8%
[6]; B2.1.7, 2.5 g/ha post-emergence
  Observed phytotoxicity ABUTH: 25%
[6]; B2.4.6, 0.625 g/ha post-emergence
  Observed phytotoxicity ABUTH: 15%
Setaria faberi (SETFA); 0.625 g/ha post-emergence
  SETFA percentage phytotoxicity: 7%
Setaria faberi (SETFA); 1.25 g/ha post-emergence
  SETFA percentage phytotoxicity: 13%
Setaria faberi (SETFA); 2.5 g/ha post-emergence
  SETFA percentage phytotoxicity: 29%
Setaria faberi (SETFA); 5 g/ha post-emergence
  SETFA percentage phytotoxicity: 53%
Setaria faberi (SETFA); 10 g/ha post-emergence
  SETFA percentage phytotoxicity: 65%
Setaria faberi (SETFA); B2.1.3, 5 g/ha post-emergence
  Observed phytotoxicity SETFA: 40%
Setaria faberi (SETFA); B2.2.1, 1.25 g/ha post-emergence
  Observed phytotoxicity SETFA: 8%
Setaria faberi (SETFA); B2.2.1, 2.5 g/ha post-emergence
  Observed phytotoxicity SETFA: 14%
Setaria faberi (SETFA); B2.2.1, 5 g/ha post-emergence
  Observed phytotoxicity SETFA: 51%
Setaria faberi (SETFA); B2.3.1, 0.625 g/ha post-emergence
  Observed phytotoxicity SETFA: 3%
Setaria faberi (SETFA); B2.3.1, 1.25 g/ha post-emergence
  Observed phytotoxicity SETFA: 8%
Setaria faberi (SETFA); B2.3.1, 2.5 g/ha post-emergence
  Observed phytotoxicity SETFA: 14%
Setaria faberi (SETFA); B2.4.1, 2.5 g/ha post-emergence
  Observed phytotoxicity SETFA: 29%
Setaria faberi (SETFA); B2.6.1, 0.625 g/ha post-emergence
  Observed phytotoxicity SETFA: 7%
Setaria faberi (SETFA); B2.6.1, 2.5 g/ha post-emergence
  Observed phytotoxicity SETFA: 29%
[7]; 0.625 g/ha post-emergence
  IPOHE percentage phytotoxicity: 32%
[7]; 1.25 g/ha post-emergence
  IPOHE percentage phytotoxicity: 50%
[7]; 2.5 g/ha post-emergence
  IPOHE percentage phytotoxicity: 80%
[7]; 5 g/ha post-emergence
  IPOHE percentage phytotoxicity: 79%
[7]; 10 g/ha post-emergence
  IPOHE percentage phytotoxicity: 60%
[7]; B2.3.6, 0.625 g/ha post-emergence
  Observed phytotoxicity IPOHE: 24%
[7]; B2.4.5, 10 g/ha post-emergence
  Observed phytotoxicity IPOHE: 60%
[7]; B2.6.4, 10 g/ha post-emergence
  Observed phytotoxicity IPOHE: 60%
